Reference: patent US20090191193A1, “Aryl Vinyl Sulfides, Sulfones, Sulfoxides and Sulfonamides, Derivatives Thereof and Therapeutic Uses Thereof” (TEMPLE UNIVERSITY-OF THE COMMONWEALTH SYSTEM OF HIGHER …, priority 2006, published 2009)

Key:
DU145 (prostate cancer) = experiment: Effect on tumor cell lines, viable cell count by trypan blue exclusion (Latham et al.): DU145; type: cell-based; details: DU145 prostate cancer cells, viable cell count 96 hours after treatment
[1] = tested on: K562 (chronic myelogenous leukaemia); experiment: Effect on tumor cell lines, viable cell count by trypan blue exclusion (Latham et al.): K562; type: cell-based; details: K562 chronic myelogenous leukaemia cells, viable cell count 96 hours after treatment

Compound | IC50 (DU145 (prostate cancer); Homo sapiens, DU-145, 96 h) | IC50 ([1]; Homo sapiens, K562, 96 h) | melting point | IC50 (DU145 (prostate cancer)) | IC50 [1]
COc1ccc(CS(=O)(=O)/C(C#N)=C/c2ccc(OC)cc2OC)cc1 [Example 147] | > 100 µM | > 100 µM | 156 to 160 °C | – | –
COc1ccc(OC)c(/C=C(\C#N)S(=O)(=O)Cc2ccccc2)c1 [Example 135] | > 100 µM | > 100 µM | 140 to 143 °C | – | –
N#C/C(=C\c1ccc(F)c(Cl)c1)S(=O)(=O)Nc1ccc(F)cc1 [Example 245] | 50 to 100 µM | 50 to 100 µM | 118 to 120 °C | – | –
COc1ccc(/C=C(\C#N)S(=O)(=O)Cc2ccccc2)c(F)c1 [Example 129] | > 100 µM | 50 to 100 µM | 161 to 166 °C | – | –
COc1cc(OC)c(OC)cc1/C=C(\C#N)S(=O)(=O)Cc1ccc(Cl)cc1Cl [Example 107] | 50 to 100 µM | > 100 µM | 164 to 170 °C | – | –
COc1ccc(NS(=O)(=O)/C(C#N)=C/c2ccc(C)s2)cc1 [Example 283] | > 100 µM | > 100 µM | 118 to 121 °C | – | –
Cc1ccc(/C=C(\C#N)S(=O)(=O)Cc2ccc(Cl)cc2Cl)cc1C [Example 97] | > 100 µM | > 100 µM | 126 to 142 °C | – | –
N#C/C(=C\c1ccoc1)S(=O)(=O)Cc1ccc(Cl)cc1Cl [Example 104] | > 100 µM | 50 to 100 µM | 116 to 122 °C | – | –
COc1ccc(/C=C(\C#N)S(=O)(=O)Cc2ccc(Cl)cc2)c(F)c1 [Example 49] | > 100 µM | 50 to 100 µM | 145 to 155 °C | – | –
N#C/C(=C\c1ccc(Cl)cc1)S(=O)(=O)Cc1ccc(Cl)cc1Cl [Example 100] | > 100 µM | > 100 µM | 119 to 125 °C | – | –
N#C/C(=C\c1c[nH]c2ccc(Cl)cc12)S(=O)(=O)Cc1ccc(Cl)cc1Cl [Example 75] | – | – | 282 to 292 °C | 50 to 100 µM | 50 to 100 µM
N#C/C(=C\c1c(F)c(F)c(F)c(F)c1F)S(=O)(=O)Cc1ccc(Cl)cc1 [Example 21] | 50 µM | 25 µM | 154 to 156 °C | – | –
Cc1ccc(/C=C(\C#N)S(=O)(=O)Cc2ccc(Br)cc2)s1 [Example 118] | > 100 µM | > 100 µM | 142 to 148 °C | – | –
Cc1ccoc1/C=C(\C#N)S(=O)(=O)Cc1cccc(Br)c1 [Example 114] | > 100 µM | > 100 µM | 122 to 126 °C | – | –
COc1cc(/C=C(\C#N)S(=O)(=O)Cc2ccc(Cl)cc2)cc(OC)c1 [Example 56] | 50 to 100 µM | 25 to 50 µM | 155 to 165 °C | – | –
COc1ccc(NS(=O)(=O)/C(C#N)=C/c2ccccc2OC)cc1 [Example 204] | > 100 µM | 50 to 100 µM | 133 to 135 °C | – | –
CCOc1ccc(/C=C(\C#N)S(=O)(=O)Nc2ccc(C)cc2C)cc1OC [Example 273] | > 100 µM | > 100 µM | 146 to 150 °C | – | –
COc1ccc(/C=C(\C#N)S(=O)(=O)Cc2ccc(Cl)cc2Cl)c(OC)c1 [Example 111] | > 100 µM | > 100 µM | 165 to 170 °C | – | –
N#C/C(=C\c1ccc(O)c([N+](=O)[O-])c1)S(=O)(=O)Cc1ccc(Cl)cc1 [Example 59] | 50 to 100 µM | 50 to 100 µM | 195 to 205 °C | – | –
Cc1ccc(/C=C(\C#N)S(=O)(=O)Cc2ccc(Cl)cc2Cl)s1 [Example 63] | > 100 µM | > 100 µM | 118 to 124 °C | – | –
COc1ccc(NS(=O)(=O)/C(C#N)=C/c2ccc(Br)cc2)cc1 [Example 291] | – | – | 102 to 103 °C | 50 to 100 µM | 50 to 100 µM
N#C/C(=C\c1ccccc1O)S(=O)(=O)Cc1ccc(Cl)cc1Cl [Example 108] | > 100 µM | > 100 µM | 219 to 223 °C | – | –

Compound | IC50 (DU145 (prostate cancer); Homo sapiens, DU-145, 96 h) | IC50 ([1]; Homo sapiens, K562, 96 h) | melting point | IC50 (DU145 (prostate cancer)) | IC50 [1]
COc1cccc(OC)c1/C=C(\C#N)S(=O)(=O)Cc1ccc(Br)cc1 [Example 18] | 25 µM | 10 µM | 156 to 158 °C | – | –
COc1ccc(CS(=O)(=O)/C(C#N)=C/c2cc(OC)cc(OC)c2)cc1 [Example 149] | > 100 µM | 50 to 100 µM | 135 to 140 °C | – | –
CCOc1ccc(/C=C(\C#N)S(=O)(=O)Nc2ccccc2Oc2ccccc2)cc1OC [Example 211] | 1 to 10 µM | 1 to 10 µM | 142 to 144 °C | – | –
N#C/C(=C\c1ccc(Br)cc1)S(=O)(=O)Cc1ccc(Cl)cc1Cl [Example 98] | 50 to 100 µM | 25 to 50 µM | 126 to 138 °C | – | –
Cc1ccc(/C=C(\C#N)S(=O)(=O)Cc2ccc(Cl)cc2)cc1C [Example 66] | 50 to 100 µM | 50 to 100 µM | 191 to 202 °C | – | –
N#C/C(=C\c1ccc(Cl)c(Cl)c1Cl)S(=O)(=O)Cc1ccc(Cl)cc1 [Example 62] | > 100 µM | 50 to 100 µM | 145 to 155 °C | – | –
COc1ccc(/C=C(\C#N)S(=O)(=O)Cc2ccc(Cl)cc2Cl)cc1 [Example 99] | > 100 µM | 50 to 100 µM | 114 to 127 °C | – | –
CCOc1cc(/C=C(\C#N)S(=O)(=O)Cc2ccc(Cl)cc2)ccc1O [Example 54] | > 100 µM | 50 to 100 µM | 155 to 169 °C | – | –
N#C/C(=C\c1c[nH]c2ccc(Cl)cc12)S(=O)(=O)Cc1ccc(Cl)cc1Cl [Example 91] | – | – | 150 to 161 °C | 10 to 25 µM | 10 to 25 µM
N#C/C(=C\c1ccc(Br)cc1)S(=O)(=O)Nc1ccccc1Oc1ccccc1 [Example 196] | 50 to 100 µM | 50 to 100 µM | 129 to 134 °C | – | –
N#C/C(=C\c1ccc(Br)cc1)S(=O)(=O)Nc1ccc(Br)cc1 [Example 217] | 50 to 100 µM | 25 to 50 µM | 174 to 176 °C | – | –
Cc1ccc(NS(=O)(=O)/C(C#N)=C/c2c[nH]c3ccccc23)c(C)c1 [Example 253] | 50 to 100 µM | 25 to 50 µM | 192 to 194 °C | – | –
N#C/C(=C\c1c(F)c(F)c(F)c(F)c1F)S(=O)(=O)Nc1ccc(F)cc1 [Example 234] | 1 to 10 µM | < 1 µM | 150 to 152 °C | – | –
COc1ccc(CS(=O)(=O)/C(C#N)=C/c2c(F)c(F)c(F)c(F)c2F)cc1OS(=O)(=O)c1ccc(C)cc1 [Example 38, (E)-2-[(4-methoxy-3-(4-methylphenylsulfonyloxy)phenyl)methanesulfonyl]-3-(2,3,4,5,6-pentafluorophenyl)acrylonitrile] | > 100 µM | 50 to 100 µM | 170 to 172 °C | – | –
N#C/C(=C\c1c[nH]c2ccc(Cl)cc12)S(=O)(=O)Cc1ccc(F)cc1 [Example 77] | 50 to 100 µM | 50 to 100 µM | 250 to 265 °C | – | –
N#C/C(=C\c1c[nH]c2ccccc12)S(=O)(=O)Nc1ccc(F)cc1 [Example 231] | 50 to 100 µM | 25 to 50 µM | 202 to 204 °C | – | –
N#C/C(=C\c1ccc(Br)cc1)S(=O)(=O)Cc1ccc(F)cc1 [Example 82] | > 100 µM | > 100 µM | 155 to 168 °C | – | –
CN(C)c1ccc(/C=C(\C#N)S(=O)(=O)Nc2ccc(Br)cc2)cc1 [Example 216] | 50 to 100 µM | 25 to 50 µM | 190 to 192 °C | – | –
Cc1ccoc1/C=C(\C#N)S(=O)(=O)Cc1ccccc1 [Example 128] | > 100 µM | 50 to 100 µM | 118 to 121 °C | – | –
Cc1ccc(/C=C(\C#N)S(=O)(=O)Cc2ccc(Cl)cc2)s1 [Example 123] | > 100 µM | > 100 µM | 148 to 152 °C | – | –
N#C/C(=C\c1ccc(O)c([N+](=O)[O-])c1)S(=O)(=O)Nc1ccccc1Oc1ccccc1 [Example 209] | > 100 µM | 50 to 100 µM | 83 to 85 °C | – | –
N#C/C(=C\c1ccc(Cl)cc1)S(=O)(=O)Nc1ccc(F)cc1 [Example 248] | > 100 µM | 50 to 100 µM | 108 to 110 °C | – | –
